# Experimental data reported in patent publication US7902373B2 (Pfizer Inc, priority 2006, dated 2011).
# Target: human recombinant H-PGDS (Homo sapiens, UniProt O60760)
# Assay: Fluorescence intensity h-PGDS TBA enzyme assay
# Format: biochemical
# Details: Examples up to 622 (and 3a, 3b)
# human recombinant H-PGDS, sequence (O60760 whole entry): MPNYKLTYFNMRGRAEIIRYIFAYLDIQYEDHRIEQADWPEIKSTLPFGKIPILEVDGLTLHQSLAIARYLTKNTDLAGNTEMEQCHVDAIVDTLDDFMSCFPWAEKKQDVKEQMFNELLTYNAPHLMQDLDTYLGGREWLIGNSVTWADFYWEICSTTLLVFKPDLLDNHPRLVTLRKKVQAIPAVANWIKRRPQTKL
row,Structure (SMILES),IC50
1,"NC(=O)CCN1CCC(N2CCC(NC(=O)c3ccc(-c4cccc(F)c4)nc3)CC2)CCC1=O (stereo not shown) [Example 557, N-{1-[1-(3-Amino-3-oxopropyl)-7-oxoazepan-4-yl]piperidin-4-yl}-6-(3-fluorophenyl)nicotinamide]",6.56 nM
2,"O=C(NC1CCN(C2CCC(O)(c3ccccc3)CC2)CC1)c1ccc(-c2cccc(F)c2)nc1 (stereo not shown) [Example 558, 6-(3-Fluorophenyl)-N-[1-(4-hydroxy-4-phenylcyclohexyl)piperidin-4-yl]nicotinamide]",0.345 nM
3,"CC(C)(C)OC(=O)c1ccc(N2CCC(NC(=O)c3ccc(-c4cccc(F)c4)nc3)CC2)nc1 [Example 559, tert-Butyl 6-[4-({[6-(3-fluorophenyl)pyridin-3-yl]carbonyl}amino)piperidin-1-yl]nicotinate]",10.6 nM
4,"O=C(O)c1ccc(N2CCC(NC(=O)c3ccc(-c4cccc(F)c4)nc3)CC2)nc1 [Example 560, 6-[4-({[6-(3-Fluorophenyl)pyridin-3-yl]carbonyl}amino)piperidin-1-yl]nicotinic acid]",0.641 nM
5,"CCN(CCO)C(=O)c1ccc(N2CCC(NC(=O)c3ccc(-c4cccc(F)c4)nc3)CC2)nc1 [Example 561, N-Ethyl-6-[4-({[6-(3-fluorophenyl)pyridin-3-yl]carbonyl}amino)piperidin-1-yl]-N-(2-hydroxyethyl)nicotinamide]",1.14 nM
6,"C=C(C)CN(C)C(=O)c1ccc(N2CCC(NC(=O)c3ccc(-c4cccc(F)c4)nc3)CC2)nc1 [Example 562, 6-[4-({[6-(3-Fluorophenyl)pyridin-3-yl]carbonyl}amino)piperidin-1-yl]-N-methyl-N-(2-methylprop-2-en-1-yl)nicotinamide]",1.74 nM
7,"C=CCN(C)C(=O)c1ccc(N2CCC(NC(=O)c3ccc(-c4cccc(F)c4)nc3)CC2)nc1 [Example 563, N-Allyl-6-[4-({[6-(3-fluorophenyl)pyridin-3-yl]carbonyl}amino)piperidin-1-yl]-N-methylnicotinamide]",0.981 nM
8,"O=C(NC1CCN(c2ccc(C(=O)N3CCC3)cn2)CC1)c1ccc(-c2cccc(F)c2)nc1 [Example 564, N-{1-[5-(Azetidin-1-ylcarbonyl)pyridin-2-yl]piperidin-4-yl}-6-(3-fluorophenyl)nicotinamide]",1.09 nM
9,"C#CCN(C)C(=O)c1ccc(N2CCC(NC(=O)c3ccc(-c4cccc(F)c4)nc3)CC2)nc1 [Example 565, 6-[4-({[6-(3-Fluorophenyl)pyridin-3-yl]carbonyl}amino)piperidin-1-yl]-N-methyl-N-prop-2-yn-1-ylnicotinamide]",1.05 nM
10,"CCN(C)C(=O)c1ccc(N2CCC(NC(=O)c3ccc(-c4cccc(F)c4)nc3)CC2)nc1 [Example 566, N-Ethyl-6-[4-({[6-(3-fluorophenyl)pyridin-3-yl]carbonyl}amino)piperidin-1-yl]-N-methylnicotinamide]",1.82 nM
11,"CC(CO)N(C)C(=O)c1ccc(N2CCC(NC(=O)c3ccc(-c4cccc(F)c4)nc3)CC2)nc1 (stereo not shown) [Example 567, 6-[4-({[6-(3-Fluorophenyl)pyridin-3-yl]carbonyl}amino)piperidin-1-yl]-N-(2-hydroxy-1-methylethyl)-N-methylnicotinamide]",0.867 nM
12,"O=C(NC1CCN(c2ccc(C(=O)N3CCC(F)C3)cn2)CC1)c1ccc(-c2cccc(F)c2)nc1 (stereo not shown) [Example 568, 6-(3-Fluorophenyl)-N-(1-{5-[(3-fluoropyrrolidin-1-yl)carbonyl]pyridin-2-yl}piperidin-4-yl)nicotinamide]",0.649 nM
13,"CN(C(=O)c1ccc(N2CCC(NC(=O)c3ccc(-c4cccc(F)c4)nc3)CC2)nc1)C1CCC1 [Example 569, N-Cyclobutyl-6-[4-({[6-(3-fluorophenyl)pyridin-3-yl]carbonyl}amino)piperidin-1-yl]-N-methylnicotinamide]",2.13 nM
14,"CCN(CC)C(=O)c1ccc(N2CCC(NC(=O)c3ccc(-c4cccc(F)c4)nc3)CC2)nc1 [Example 570, N,N-Diethyl-6-[4-({[6-(3-fluorophenyl)pyridin-3-yl]carbonyl}amino)piperidin-1-yl]nicotinamide]",1.41 nM
15,"O=C(NC1CCN(c2ccc(C(=O)N3CC=CC3)cn2)CC1)c1ccc(-c2cccc(F)c2)nc1 [Example 571, N-{1-[5-(2,5-Dihydro-1H-pyrrol-1-ylcarbonyl)pyridin-2-yl]piperidin-4-yl)-6-(3-fluorophenyl)nicotinamide]",1.04 nM
16,"CCCN(C)C(=O)c1ccc(N2CCC(NC(=O)c3ccc(-c4cccc(F)c4)nc3)CC2)nc1 [Example 572, 6-[4-({[6-(3-Fluorophenyl)pyridin-3-yl]carbonyl}amino)piperidin-1-yl]-N-methyl-N-propylnicotinamide]",5.25 nM
17,"O=C(NC1CCN(c2ccc(C(=O)N3CCSC3)cn2)CC1)c1ccc(-c2cccc(F)c2)nc1 [Example 573, 6-(3-Fluorophenyl)-N-{1-[5-(1,3-thiazolidin-3-ylcarbonyl)pyridin-2-yl]piperidin-4-yl}nicotinamide]",1.35 nM
18,"CN(CC1CC1)C(=O)c1ccc(N2CCC(NC(=O)c3ccc(-c4cccc(F)c4)nc3)CC2)nc1 [Example 574, N-(Cyclopropylmethyl)-6-[4-({[6-(3-fluorophenyl)pyridin-3-yl]carbonyl}amino)piperidin-1-yl]-N-methylnicotinamide]",1.24 nM
19,"CC(C)CN(C)C(=O)c1ccc(N2CCC(NC(=O)c3ccc(-c4cccc(F)c4)nc3)CC2)nc1 [Example 575, 6-[4-({[6-(3-Fluorophenyl)pyridin-3-yl]carbonyl}amino)piperidin-1-yl]-N-isobutyl-N-methylnicotinamide]",2.24 nM
20,"CN(CCC#N)C(=O)c1ccc(N2CCC(NC(=O)c3ccc(-c4cccc(F)c4)nc3)CC2)nc1 [Example 576, N-(2-Cyanoethyl)-6-[4-({[6-(3-fluorophenyl)pyridin-3-yl]carbonyl}amino)piperidin-1-yl]-N-methylnicotinamide]",0.561 nM
21,"O=C(NC1CCN(CC(F)(F)F)CC1)c1ccc(N2CCC(NC(=O)c3ccc(-c4cccc(F)c4)nc3)CC2)nc1 [Example 577, 6-(3-Fluorophenyl)-N-{1-[5-({[1-(2,2,2-trifluoroethyl)piperidin-4-yl]amino}carbonyl)pyridin-2-yl]piperidin-4-yl}nicotinamide]",1.48 nM
22,"CC1C=CC(C)N1C(=O)c1ccc(N2CCC(NC(=O)c3ccc(-c4cccc(F)c4)nc3)CC2)nc1 (stereo not shown) [Example 578, N-(1-{5-[(2,5-Dimethyl-2,5-dihydro-1H-pyrrol-1-yl)carbonyl]pyridin-2-yl}piperidin-4-yl)-6-(3-fluorophenyl)nicotinamide]",3.1 nM
23,"O=C(NC1CCN(c2ncc3c(n2)CCOC3)CC1)c1ccc(-c2cccc(F)c2)nc1 [Example 579, N-[1-(7,8-Dihydro-5H-pyrano[4,3-d]pyrimidin-2-yl)piperidin-4-yl]-6-(3-fluorophenyl)nicotinamide]",1.05 nM
24,"O=C(NC1CCN(c2cccnn2)CC1)c1ccc(-c2cccc(F)c2)nc1 [Example 580, 6-(3-Fluorophenyl)-N-(1-pyridazin-3-ylpiperidin-4-yl)nicotinamide]",0.35 nM
25,"O=C(NC1CCN(CC(F)(F)F)CC1)c1ccc(-c2cc(F)ccc2F)nc1 [Example 583, 6-(2,5-Difluorophenyl)-N-[1-(2,2,2-trifluoroethyl)piperidin-4-yl]nicotinamide]",1.05 nM
